In patent US12527785B2, “Renin-angiotensin-aldosterone system (RAAS) inhibitors in the treatment of pancreatic ductal carcinoma” (OCHSNER CLINIC FOUNDATION, priority 2023, dated 2026):

Tests used:
PANC-1 cells = test: WST1 cell proliferation assay, PANC-1 cells; format: cell-based, human
Experimental: (§1) PDA cell line (PANC-1 or HS766T) or patient cancer cells (PaCa9) were trypsinized with 1% trypsin in Hank's Balanced Salt Solution (HBSS), counted, washed, and resuspended in serum free AIM media (ThermoFisher Scientific, Waltham, MA) or complete Dulbecco's Modified Eagle Medium (DMEM) supplemented with 10% fetal bovine serum, […], 100 U/ml of penicillin G, and […] of streptomycin. Cells at a concentration of 2-4×10^4 cells/well in 100 μl culture medium were seeded in triplicate in 96 well plates, then cultured in a humidified incubator at 37° C. and 5% CO2. On the next day, cell supernatant was discarded and compounds (e.g., drugs) of the present disclosure in 200 μl medium were added with the concentrations indicated in the following Examples. After 72 hours of culture, cell proliferation reagent WST1 (20 μl/well, Sigma Aldrich Inc, St. Louis, MO) were added and plates were read using an ELISA reader at 2 hours and 4 hours under the wavelength of 450 nm. The measured absorbance (OD value) was recorded and graphed and statistically analyzed using GraphPad Prism 8, t-test, or t-test with Bonferroni correction.

HS766T cells = test: WST1 cell proliferation assay, HS766T cells; format: cell-based
Experimental: as §1

[1] = test system: PaCa-9 PDAC patient tumor cells; test: WST1 cell proliferation assay, PaCa-9 PDAC patient tumor cells; format: cell-based, human; details: for cell proliferation, WST1 absorbance (OD value, 450 nm), mean: 10% FCS-DMEM
Experimental: as §1, with “Louis, MO) were added and plates were read using an ELISA reader at 2 hours and 4 hours under the wavelength of 450 nm.” left out

[2] = test system: PANC-1 tumor orthotopic xenograft; test: PANC-1 tumor orthotopic xenograft mouse model (BLI tumor burden, tumor weight); format: in vivo; details: four weeks; for BLI data, mean: control 3.003; for Tumor weight, % of control / Tumor weight, mean: Table 19; for Tumor weight, mean: control 0.425
Text: Human PDCA cell line PANC-1 was transduced with pre-made lentiviral vectors encoding luciferase (firefly)/red fluorescent protein (RFP) to enable monitoring of the growth of primary tumor and metastasis. […] For in vivo experiments, Nonobese diabetic/severe combined immunodeficiencyNOD-SCID mice (Jackson Labs, Bar Harbor, ME, or inhouse breeding) were first brought under anesthesia with isoflurane (2.5% in 100% oxygen, 1 L/min) in an induction chamber and maintained under adequate anesthesia (isoflurane inhalation) while being laid on a warming pad throughout the surgical procedure. For tumor generation, 5×10^4 luciferase-tagged PANC-1 cells were co-inoculated with 3×10^5 lymph node stromal cell (LNSC) analog HK cells. The mice received a 0.75-1.2 cm long incision (on the left side of the body slightly medial to the splenic silhouette) to exteriorize the spleen and pancreas. While gently retracting the pancreas laterally, a 30 G needle was inserted along the length of the pancreas from the tail to the pancreatic head region. Then, 10 μl of cell suspension was injected as the needle was withdrawn to the mid-body of the pancreas. The needle was removed, and the area was inspected for leakage and bleeding. The pancreas and spleen were internalized with forceps and the abdominal muscle layer was closed with interrupted stitches (3-0 silk suture). The overlying skin was closed with a second set of interrupted stitches. Buprenorphine SR-LAB was injected subcutaneously immediately after the surgery for pain relief.
After the surgery, tumor growth and metastatic tumor burden were monitored and assessed weekly for luciferase activity by bioluminescence imaging (BLI) using Lago Imaging System (Spectral Instruments Imaging, Tucson, AZ). Mice were anesthetized using isoflurane for all imaging procedures. Mice were administered intraperitoneally with luciferin (10 mg/kg) and imaged in 10-20 minutes for maximum luciferase signal plateau. Images were analyzed using Aura Imaging software. Once the BLI levels of xenografted tumor reached 5×10^8 photons (around 7-9 weeks post PANC-1 cell injection), the mice were grouped based on their BLI level and compounds (e.g., drugs) of the present disclosure were given by gavage daily to each group for 4 weeks. […] Upon sacrifice after 4 weeks of treatment, primary tumors and mouse organs were harvested, weighed, imaged, and formalin-fixed for (hematoxylin and eosin) H&E and immunohistochemistry staining. Data was statistically analyzed using t-test, or t-test with Bonferroni correction.

[3] = test system: PDCA cells (PANC-1, HS766T, PaCa9); test: In vitro PDCA cell proliferation (WST1), summary statements over the cell lines tested; format: cell-based
Experimental: as §1

[4] = mouse, in vivo; cited from earlier work
[5] = 0.1 mg/kg by subcutaneous injection; cited from earlier work
[6] = Candesartan Cilexitil (60 mg/kg)

Compound: CCOc1nc2cccc(C(=O)O)c2n1Cc1ccc(-c2ccccc2-c2nnn[nH]2)cc1 [Candesartan]
- Effective (statistically significant, p<0.05, decrease in cell proliferation by WST1 assay) (PANC-1 cells; 20 μM): effective
- cell proliferation, WST1 absorbance (OD value, 450 nm), mean (PANC-1 cells; Candesartan 20 μM, Table 5A, 10% FCS-DMEM, 2×10^4 cells per well, Medium/DMSO 3.348): 0.612
- Effective (statistically significant, p<0.05, decrease in cell proliferation by WST1 assay) (HS766T cells; 20 μM): effective
- cell proliferation, WST1 absorbance (OD value, 450 nm), mean (HS766T cells; Candesartan 10 μM, Table 2, 2 h, 10% FCS-DMEM, control 3.214): 2.856
- cell proliferation, WST1 absorbance (OD value, 450 nm), mean (HS766T cells; Candesartan 20 μM, Table 6A, 10% FCS-DMEM, 2×10^4 cells per well, control 3.339): 0.620
- Effective (statistically significant, p<0.05, decrease in cell proliferation by WST1 assay) ([1]; 20 μM): effective
- cell proliferation, WST1 absorbance (OD value, 450 nm), mean ([1]; Candesartan 10 μM, Table 3, 1 h, Medium/DMSO 3.571): 3.694
- cell proliferation, WST1 absorbance (OD value, 450 nm), mean ([1]; Candesartan 20 μM, Table 7A, 2×10^4 cells per well, control 3.535): 0.464
- BLI data, % of control ([2]; Candesartan (30 mg/kg)): 67%
- BLI data, mean ([2]; Candesartan (30 mg/kg)): 2.016
- Minimum effective dose (concentration) in vitro ([3]; PANC-1, Hs766T and PaCa9 cells): ~20 µM
- Change in cellular proliferation ([3]; candesartan 10 μM): no statistical change in cellular proliferation

Compound: CCOc1nc2cccc(C(=O)OC(C)OC(=O)OC3CCCCC3)c2n1Cc1ccc(-c2ccccc2-c2nnn[nH]2)cc1 (stereo not shown) [Candesartan Cilexitil]
- Tumor weight, % of control [2, 6]: 38%
- Tumor weight, mean [2, 6]: 0.163 g
- Safety of oral administration to mice [4]: safely

Compound: CC(=O)S[C@@H]1CC2=CC(=O)CC[C@]2(C)[C@H]2CC[C@@]3(C)[C@@H](CC[C@@]34CCC(=O)O4)[C@H]12 [Spironolactone]
- Tumor weight, % of control ([2]; Spironolactone (100 mg/kg)): 69%
- Tumor weight, mean ([2]; Spironolactone (100 mg/kg)): 0.292 g

Compound: Cc1cc(Cn2cnc3c2C[C@@H](C(=O)O)N(C(=O)C(c2ccccc2)c2ccccc2)C3)ccc1N(C)C [PD123319]
- cell proliferation, WST1 absorbance (OD value, 450 nm), mean (PANC-1 cells; 10 μM, Table 8, 2 h, DMEM-10% FCS, control 3.922): 2.724
- cell proliferation, WST1 absorbance (OD value, 450 nm), mean (PANC-1 cells; 10 μM, Table 10, 2 h, serum free media, control 3.443): 2.120
- cell proliferation, WST1 absorbance (OD value, 450 nm), mean (PANC-1 cells; 10 μM, Table 12, 2 h, 10% FCS DMEM, N = 6, control 3.37): 2.823
- cell proliferation, WST1 absorbance (OD value, 450 nm), mean (PANC-1 cells; 10 μM, Table 14, 2 h, serum free media, N = 6, control 1.208): 1.048
- cell proliferation, WST1 absorbance (OD value, 450 nm), mean (PANC-1 cells; 30 μM, Table 8, 2 h, DMEM-10% FCS, control 3.922): 2.60
- cell proliferation, WST1 absorbance (OD value, 450 nm), mean (PANC-1 cells; 30 μM, Table 10, 2 h, serum free media, control 3.443): 1.970
- cell proliferation, WST1 absorbance (OD value, 450 nm), mean (PANC-1 cells; 30 μM, Table 12, 2 h, 10% FCS DMEM, N = 6, control 3.37): 2.854
- cell proliferation, WST1 absorbance (OD value, 450 nm), mean (PANC-1 cells; 30 μM, Table 14, 2 h, serum free media, N = 6, control 1.208): 0.7668
- cell proliferation, WST1 absorbance (OD value, 450 nm), mean (PANC-1 cells; 50 μM, Table 8, 2 h, DMEM-10% FCS, N = 1, control 3.922): 1.951
- cell proliferation, WST1 absorbance (OD value, 450 nm), mean (PANC-1 cells; 50 μM, Table 10, 2 h, serum free media, control 3.443): 2.146
- cell proliferation, WST1 absorbance (OD value, 450 nm), mean (PANC-1 cells; 50 μM, Table 12, 2 h, 10% FCS DMEM, N = 6, control 3.37): 2.873
- cell proliferation, WST1 absorbance (OD value, 450 nm), mean (PANC-1 cells; 50 μM, Table 14, 2 h, serum free media, N = 6, control 1.208): 0.728
- cell proliferation, WST1 absorbance (OD value, 450 nm), mean (HS766T cells; 10 μM, Table 9, 2 h, DMEM-10% FCS, control 2.025): 1.336
- cell proliferation, WST1 absorbance (OD value, 450 nm), mean (HS766T cells; 10 μM, Table 11, 2 h, serum free media, control 2.0695): 1.24
- cell proliferation, WST1 absorbance (OD value, 450 nm), mean (HS766T cells; 10 μM, Table 13, 2 h, 10% FCS DMEM, control 2.913): 2.895
- cell proliferation, WST1 absorbance (OD value, 450 nm), mean (HS766T cells; 10 μM, Table 15, 2 h, serum free media, N = 6, control 1.906): 1.708
- cell proliferation, WST1 absorbance (OD value, 450 nm), mean (HS766T cells; 30 μM, Table 11, 2 h, serum free media, control 2.0695): 1.397
- cell proliferation, WST1 absorbance (OD value, 450 nm), mean (HS766T cells; 30 μM, Table 13, 2 h, 10% FCS DMEM, control 2.913): 2.555
- cell proliferation, WST1 absorbance (OD value, 450 nm), mean (HS766T cells; 30 μM, Table 15, 2 h, serum free media, N = 6, control 1.906): 1.56
- cell proliferation, WST1 absorbance (OD value, 450 nm), mean (HS766T cells; 50 μM, Table 11, 2 h, serum free media, control 2.0695): 1.235
- cell proliferation, WST1 absorbance (OD value, 450 nm), mean (HS766T cells; 50 μM, Table 13, 2 h, 10% FCS DMEM, control 2.913): 1.886
- cell proliferation, WST1 absorbance (OD value, 450 nm), mean (HS766T cells; 50 μM, Table 15, 2 h, serum free media, N = 6, control 1.906): 1.154
- Effective in inhibiting PDCA cell proliferation in vitro ([3]; 10 μM, 30 μM, and 50 μM, presence or absence of serum): effective
- Activity in rats [5]: active

Compound: CCCCc1nc(Cl)c(CO)n1Cc1ccc(-c2ccccc2-c2nn[nH]n2)cc1 [Losartan]
- cell proliferation, WST1 absorbance (OD value, 450 nm), mean (PANC-1 cells; Losartan 100 μM, Table 1, 2 h, 10% FCS-DMEM, control 3.618): 2.507
- cell proliferation, WST1 absorbance (OD value, 450 nm), mean (PANC-1 cells; Losartan 100 μM, Table 5A, 10% FCS-DMEM, 2×10^4 cells per well, Medium/DMSO 3.348): 3.699
- cell proliferation, WST1 absorbance (OD value, 450 nm), mean (HS766T cells; Losartan 100 μM, Table 2, 2 h, 10% FCS-DMEM, control 3.214): 2.992
- cell proliferation, WST1 absorbance (OD value, 450 nm), mean (HS766T cells; Losartan 100 μM, Table 6A, 10% FCS-DMEM, 2×10^4 cells per well, control 3.339): 3.182
- cell proliferation, WST1 absorbance (OD value, 450 nm), mean ([1]; Losartan 100 μM, Table 3, 1 h, Medium/DMSO 3.571): 3.392
- cell proliferation, WST1 absorbance (OD value, 450 nm), mean ([1]; Losartan 100 μM, Table 7A, 2×10^4 cells per well, control 3.535): 3.161
- BLI data, % of control ([2]; Losartan (60 mg/kg)): 73%
- Tumor weight, % of control ([2]; Losartan (60 mg/kg)): 87%
- Tumor weight, mean ([2]; Losartan (60 mg/kg)): 0.3691 g
- BLI data, mean ([2]; Losartan (60 mg/kg)): 2.199
- Change in cellular proliferation ([3]; losartan 100 μM): no statistical change in cellular proliferation
